According to patent US12077503B2, “Substituted cyclic amides and their use as herbicides” (FMC CORPORATION, priority 2015, dated 2024):

What was measured:
Assay type in all cases: in vivo
[1] = tested on: velvetleaf (Abutilon theophrasti); assay: Test G Pre-Emergence Protocol; details: Abutilon theophrasti, pre-emergence, 312 h, evaluated after 13 days
Outline: (§1)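 Pots of seeds in standard soil were grown for one day in a glasshouse (24/16 °C day/night, 14 h light, 65% humidity), then sprayed with compound in acetone/water 50:50 with 0.5% Tween 20 at 15.625, 62.5 or 250 g/ha. Damage was scored after 13 days on a 0 (none) to 100 (total) scale.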

[2] = tested on: ivy-leaved morning glory (Ipomoea hederacea); assay: Test G Pre-Emergence Protocol; details: Ipomoea, pre-emergence, 312 h, evaluated after 13 days
Outline: as §1

corn (Zea mays) [3] = assay: Test G Pre-Emergence Protocol; details: Zea mays, pre-emergence, 312 h, evaluated after 13 days
Outline: as §1

[4] = tested on: giant foxtail (Setaria faberi); assay: Test G Pre-Emergence Protocol; details: Setaria faberi, pre-emergence, 312 h, evaluated after 13 days
Outline: as §1

[5] = tested on: redroot pigweed (Amaranthus retroflexus); assay: Test G Pre-Emergence Protocol; details: Amaranthus retroflexus, pre-emergence, 312 h, evaluated after 13 days
Outline: as §1

[6] = tested on: barnyardgrass (Echinochloa crus-galli); assay: Test G Pre-Emergence Protocol; details: Echinochloa crus-galli, pre-emergence, 312 h, evaluated after 13 days
Outline: as §1

[7] = tested on: velvetleaf (Abutilon theophrasti); assay: Test G Post-Emergence Protocol; details: Abutilon theophrasti, post-emergence, 312 h, read-out: Velvetleaf damage rating
Outline: (§2)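 A glasshouse post-emergence test: 8-day-old plants sprayed at 15.625, 62.5 or 250 g/ha, then grown at 24/16 °C day/night with 14 h light and 65% humidity. Damage rated 13 days later, 0–100.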

[8] = tested on: ivy-leaved morning glory (Ipomoea hederacea); assay: Test G Post-Emergence Protocol; details: Ipomoea, post-emergence, 312 h, read-out: Morningglory, Ivy-leaved damage rating
Outline: as §2

corn (Zea mays) [9] = assay: Test G Post-Emergence Protocol; details: Zea mays, post-emergence, 312 h, read-out: Corn damage rating
Outline: as §2

[10] = tested on: giant foxtail (Setaria faberi); assay: Test G Post-Emergence Protocol; details: Setaria faberi, post-emergence, 312 h, read-out: Foxtail, Giant damage rating
Outline: as §2

[11] = tested on: redroot pigweed (Amaranthus retroflexus); assay: Test G Post-Emergence Protocol; details: Amaranthus retroflexus, post-emergence, 312 h, read-out: Pigweed, Redroot damage rating
Outline: as §2

[12] = tested on: barnyardgrass (Echinochloa crus-galli); assay: Test G Post-Emergence Protocol; details: Echinochloa crus-galli, post-emergence, 312 h, read-out: Barnyardgrass damage rating
Outline: as §2

[13] = 15.625 g ai/ha, evaluated after 13 days (100=total damage to plant; 0=no damage to plant)
[14] = 62.5 g ai/ha, evaluated after 13 days, 100=total damage to plant, 0=no damage to plant
[15] = 250 g ai/ha, evaluated after 13 days, 100=total damage to plant, 0=no damage to plant

Structure (SMILES): COc1c(C)cc(C2CN(C)C(=O)C2C(=O)Nc2cccc(F)c2F)cc1C (centres unmarked) [Compound 1707]
- pest or weed control at 15.625 g/ha ([1]; 15.625 g ai/ha, read-out: Velvetleaf damage rating (100=total damage to plant; 0=no damage to plant)): 10%
- pest or weed control at 62.5 g/ha ([1]; 62.5 g ai/ha, 100=total damage to plant, 0=no damage to plant, read-out: Velvetleaf damage rating): 10%
- pest or weed control at 250 g/ha ([1]; 250 g ai/ha, read-out: Velvetleaf damage rating (100=total damage to plant; 0=no damage to plant)): 60%
- pest or weed control at 15.625 g/ha ([2]; 15.625 g ai/ha, read-out: Morningglory, Ivy-leaved damage rating (100=total damage to plant; 0=no damage to plant)): 0%
- pest or weed control at 62.5 g/ha ([2]; 62.5 g ai/ha, 100=total damage to plant, 0=no damage to plant, read-out: Morningglory, Ivy-leaved damage rating): 10%
- pest or weed control at 250 g/ha ([2]; 250 g ai/ha, read-out: Morningglory, Ivy-leaved damage rating (100=total damage to plant; 0=no damage to plant)): 30%
- plant injury at 15.625 g/ha (corn (Zea mays) [3]; 15.625 g ai/ha, read-out: Corn damage rating (100=total damage to plant; 0=no damage to plant)): 20%
- plant injury at 62.5 g/ha (corn (Zea mays) [3]; 62.5 g ai/ha, 100=total damage to plant, 0=no damage to plant, read-out: Corn damage rating): 80%
- plant injury at 250 g/ha (corn (Zea mays) [3]; 250 g ai/ha, read-out: Corn damage rating (100=total damage to plant; 0=no damage to plant)): 80%
- pest or weed control at 15.625 g/ha ([4]; 15.625 g ai/ha, read-out: Foxtail, Giant damage rating (100=total damage to plant; 0=no damage to plant)): 80%
- pest or weed control at 62.5 g/ha ([4]; 62.5 g ai/ha, 100=total damage to plant, 0=no damage to plant, read-out: Foxtail, Giant damage rating): 90%
- pest or weed control at 250 g/ha ([4]; 250 g ai/ha, read-out: Foxtail, Giant damage rating (100=total damage to plant; 0=no damage to plant)): 90%
- pest or weed control at 15.625 g/ha ([5]; 15.625 g ai/ha, read-out: Pigweed, Redroot damage rating (100=total damage to plant; 0=no damage to plant)): 20%
- pest or weed control at 62.5 g/ha ([5]; 62.5 g ai/ha, 100=total damage to plant, 0=no damage to plant, read-out: Pigweed, Redroot damage rating): 20%
- pest or weed control at 250 g/ha ([5]; 250 g ai/ha, read-out: Pigweed, Redroot damage rating (100=total damage to plant; 0=no damage to plant)): 40%
- pest or weed control at 15.625 g/ha ([6]; 15.625 g ai/ha, read-out: Barnyardgrass damage rating (100=total damage to plant; 0=no damage to plant)): 70%
- pest or weed control at 62.5 g/ha ([6]; 62.5 g ai/ha, 100=total damage to plant, 0=no damage to plant, read-out: Barnyardgrass damage rating): 80%
- pest or weed control at 250 g/ha ([6]; 250 g ai/ha, read-out: Barnyardgrass damage rating (100=total damage to plant; 0=no damage to plant)): 90%
- pest or weed control at 15.625 g/ha [7, 13]: 0%
- pest or weed control at 62.5 g/ha [7, 14]: 20%
- pest or weed control at 250 g/ha [7, 15]: 30%
- pest or weed control at 15.625 g/ha [8, 13]: 40%
- pest or weed control at 62.5 g/ha [8, 14]: 40%
- pest or weed control at 250 g/ha [8, 15]: 70%
- plant injury at 15.625 g/ha (corn (Zea mays) [9]; [13]): 60%
- plant injury at 62.5 g/ha (corn (Zea mays) [9]; [14]): 70%
- plant injury at 250 g/ha (corn (Zea mays) [9]; [15]): 80%
- pest or weed control at 15.625 g/ha [10, 13]: 80%
- pest or weed control at 62.5 g/ha [10, 14]: 80%
- pest or weed control at 15.625 g/ha [11, 13]: 0%
- pest or weed control at 62.5 g/ha [11, 14]: 0%
- pest or weed control at 250 g/ha [11, 15]: 0%
- pest or weed control at 15.625 g/ha [12, 13]: 70%
- pest or weed control at 62.5 g/ha [12, 14]: 70%
- pest or weed control at 250 g/ha [12, 15]: 80%
